In patent US10246498B2, “Genetically encoded histone reporter allele constructs” (THE JOHNS HOPKINS UNIVERSITY, priority 2014, dated 2019):
“Also recorded” adds a separate entry of the source.

Experiments:
[1] = tested on: Kmt2d+/βGeo mouse model of Kabuki syndrome; test: Morris water maze; type: in vivo; details: 10 mg/kg/day
Text: Kmt2d^+/βGeo mice, also named Mll2Gt^(RRt024)Byg, were acquired from Bay Genomics (University of California). All experimental mice were on a mixed C57BL/6J and 129/SvEv background. Expected Mendelian ratios were observed when heterozygous animals were bred to wild-type. In heterozygous crosses, however, there was uniform embryonic lethality of homozygotes by ED12, the earliest developmental stage assayed. For treatment with AR-42, mice were orally gavaged daily with drug (Selleck Chemicals, Houston, Tex.) solubilized in vehicle (0.5% methylcellulose, 0.1% Tween-80, water) or with vehicle alone. Drug delivery information was kindly provided by Drs. […] For quantification of DCX positive cells, doses of 0, 5, 10 and 25 mg/kg/day were used. […] Maxillary protrusion was evaluated by ten investigators blinded to genotype and they were asked to rate maxillary protrusion on radiographs as either large (2) or small (1). […]
Mice were placed in a 1.1 meter diameter tank filled with room temperature water dyed with non-toxic white paint. […] Latency to reach the platform was measured during each trial. […] Average number of crossings of the platform's previous location was recorded. […] For all training and probe testing, data was recorded both manually and electronically with ANY-maze software (San Diego Instruments, San Diego, Calif.) when applicable. […]

[2] = tested on: Klf10; test: Real-time PCR of Kmt2d target gene Klf10 in spleen cells; type: in vivo, mouse; details: spleen cells of Kmt2d+/βGeo mice
Protocol: Real-time PCR was performed using Kmt2d-specific probes for exons 20 and 52 (Mm_02600438 and Mm_01717664, respectively) from TaqMan® Gene Expression Assays (Life Technologies, Carlsbad, Calif.). For a comparison of transfection efficiencies for indicator constructs in transient transfection studies, real-time PCR was performed using SYBR Green Real-Time PCR Master Mix (Life Technologies, Carlsbad, Calif.) and primers IND-F-([…]; SEQ ID NO: 5) and IND-R-([…]; SEQ ID NO: 6) that are specific for the H3K4 methylation indicator. For expression analysis for KMT2D target gene KLF10, real-time PCR was performed using Klf10-specific expression assay (Mm00449812_m1) from TaqMan® Gene Expression Assays (Life Technologies, Carlsbad, Calif.).

Compound: CC(C)[C@H](C(=O)Nc1ccc(C(=O)NO)cc1)c1ccccc1 [AR-42]
- frequency of platform crossing, probe trial [1]: improved performance; also recorded: normalized
- escape latency during training, with versus without drug ([1]; Kmt2d+/βGeo animals): No significant difference
- Klf10 expression [2]: normalization of expression of Klf10; also recorded: normalized
